Results on four compounds are retold here after US11351221B2, “SMAC mimetic” (Medivir AB, priority 2009, dated 2022).

Data set [1] has as its system SKOV-3 ovarian tumor cell. Description: SKOV-3 cytotoxicity (MTT assay). The class given is cell-based. Particulars: Homo sapiens, SK-OV-3 cells, 72 hrs, concentration giving 50% cell survival. Here is the method: SKOV-3 ovarian tumor cell cytotoxicity data were generated substantially as follows. The MTT (3-(4,5-Dimethylthiazol-2-yl)-2,5-diphenyltetrazolium bromide) assay is an example of an assay that has been used for measuring cell growth as previously described (Hansen, M. B., Nielsen, S. E., and Berg, K. (1989) J. Immunol Methods 119, 203-210) and incorporated herein by reference in its entirety. Briefly, SK-OV-3 cells were seeded in 96-well plates in McCoy's medium containing 10% fetal bovine serum albumin (5,000 per well) and incubated overnight at 37° C. The next day, test compounds were added at various concentrations (0.003-10 μM) and the plates were incubated at 37° C. for an additional 72 hrs. This incubation time was optimal for measuring inhibitory effects of different analogs. Fifty microliters of 5 mg/mL MTT reagent to each well was added and the plates were incubated at 37° C. for 3 hours. At the end of the incubation period, 50 microliters of DMSO was added to each well to dissolve cells and the optical density (OD) of the wells was measured using a microplate reader (Victor^2 1420, Wallac, Finland) at 535 nm. Cell survival (CS) was calculated by the following equation: CS=(OD treated well/mean OD control wells)×100%
The CC50, defined as the drug concentration that results in 50% CS, was derived by calculating the point where the dose-response curve crosses the 50% CS point using GraphPad Prism.
On the technique in general: Tetrazolium assays rely on reduction of a dye to a coloured formazan, in cell work by metabolically active cells.

The target in data set [2] is T1, cIAP-1 (Homo sapiens, UniProt Q13490).
T1 construct: expressed in transfected cells; host or cells: A375 (A375Gc1)
T1 sequence (Q13490 whole entry, species assumed): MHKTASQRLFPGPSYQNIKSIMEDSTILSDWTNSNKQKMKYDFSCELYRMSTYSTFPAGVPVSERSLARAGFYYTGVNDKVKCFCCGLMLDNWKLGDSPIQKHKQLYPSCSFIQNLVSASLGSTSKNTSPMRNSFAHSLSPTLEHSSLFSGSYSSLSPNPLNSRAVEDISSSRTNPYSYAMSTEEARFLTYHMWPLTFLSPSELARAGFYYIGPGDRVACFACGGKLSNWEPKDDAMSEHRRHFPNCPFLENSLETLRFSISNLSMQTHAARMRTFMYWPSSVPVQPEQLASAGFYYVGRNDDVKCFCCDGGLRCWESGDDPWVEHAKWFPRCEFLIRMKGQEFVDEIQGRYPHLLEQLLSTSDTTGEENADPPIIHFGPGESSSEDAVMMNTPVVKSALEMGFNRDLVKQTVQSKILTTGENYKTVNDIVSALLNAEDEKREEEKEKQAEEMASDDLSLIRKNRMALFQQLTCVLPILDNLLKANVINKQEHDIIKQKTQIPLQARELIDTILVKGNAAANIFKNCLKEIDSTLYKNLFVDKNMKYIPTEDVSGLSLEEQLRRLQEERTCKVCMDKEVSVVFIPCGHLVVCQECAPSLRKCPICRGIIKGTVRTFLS
Briefly: cIAP degradation assay (GFP-cIAP-1). Particulars: for DC50: A375Gc1 cells, 2 h treatment, 50% of GFP signal inhibited (FACS), read-out: GFP-cIAP-1 IC50; for IC50 Ratio cIAP-2/cIAP-1: ratio of GFP-cIAP-2 to GFP-cIAP-1 degradation IC50. The class given is cell-based. The procedure: (§1) Briefly, A375 cell lines expressing GFP-tagged cIAP-1 and cIAP-2 were generated by transfecting HA2xEGFP-pcDNA3 vector containing either cIAP-1 (A375Gc1) or cIAP-2 (A375Gc2) coding region. 2×10^4 of A375Gc1 or A375Gc2 cells were grown in 96-well plate and treated with various concentrations of test compounds for 2 h. After incubation, cells were collected by trypsinization and suspended in 150 μl of DMEM-10% FBS. A total of 10^4 cells were analyzed using a FACScan (Becton Dickinson). GFP fluorescence was monitored by using an excitation filter at 488 nm and emission was measured with a 530 nm filter.

For data set [3], the target named is T2, XIAP (Homo sapiens, UniProt P98170).
T2 construct: endogenous in cells; host or cells: MDA-MB-231 (ATCC), soluble hypotonic lysate
T2 sequence (P98170 whole entry): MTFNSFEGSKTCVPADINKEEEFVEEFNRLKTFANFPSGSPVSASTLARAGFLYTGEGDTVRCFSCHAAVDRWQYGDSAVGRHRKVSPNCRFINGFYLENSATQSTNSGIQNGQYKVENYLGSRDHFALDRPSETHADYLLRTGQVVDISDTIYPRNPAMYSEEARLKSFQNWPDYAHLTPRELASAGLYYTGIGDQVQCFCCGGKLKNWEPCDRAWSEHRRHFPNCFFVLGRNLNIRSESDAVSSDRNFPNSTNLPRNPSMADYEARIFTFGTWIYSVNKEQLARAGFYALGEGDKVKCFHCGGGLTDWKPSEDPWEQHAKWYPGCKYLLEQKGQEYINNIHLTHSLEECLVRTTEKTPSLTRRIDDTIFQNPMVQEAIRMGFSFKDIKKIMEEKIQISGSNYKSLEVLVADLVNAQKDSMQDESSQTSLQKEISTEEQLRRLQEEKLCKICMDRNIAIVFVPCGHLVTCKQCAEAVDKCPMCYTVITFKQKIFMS
Briefly: Caspase-3 derepression assay. Particulars: MDA-MB-231 hypotonic lysate activated with cytochrome c and dATP; zDEVD-R110(2) substrate. The class given is biochemical. The procedure: Cell pellet was washed one time by resuspending in 5 mL hypotonic lysis buffer (20 mM HEPES, pH7.5, 10 mM KCl, 1.5 mM MgCl2, 1.0 mM EDTA, 1.0 mM DTT) and recollected by centrifugation. Pellet was next resuspended in 1 volume of hypotonic lysis buffer supplemented with a complete protease inhibitor tablet (Roche) and allowed to swell on ice for 30 minutes. Cells were disrupted by approximately 50 passages through a 27 gauge needle. Lysis was monitored by light microscopy. Lysate was centrifuged at 12000×g for 10 minutes at 4° C. to remove membrane fraction, unlysed cells and debris. The soluble fraction was collected for protein concentration determination and subsequent assay analysis.
The hypotonic lysate (25 μg protein), 50 μg/mL cytochrome c and 10 mM dATP were combined in a microcentrifuge tube to a final volume of 9 μl in hypotonic lysis buffer followed by addition of test compound and incubated for 30 minutes at room temp. Following incubation 50 μl of hypotonic lysis buffer containing 5 μM of pro-fluorescent rhodamine-110(2) based caspase-3 substrate zDEVD-R110(2) was added and fluorescence intensity was monitored over time. Activation of the lysate by addition of cytochrome c and dATP results in apoptosome formation and subsequent activation of caspases-9 and -3.

Data set [4] has as its target T3, cIAP-2 (Homo sapiens, UniProt Q13489).
T3 construct: expressed in transfected cells; host or cells: A375 (A375Gc2)
Briefly: cIAP degradation assay (GFP-cIAP-2). The class given is cell-based. Particulars: A375Gc2 cells, 2 h treatment, 50% of GFP signal inhibited (FACS); read-out: GFP-cIAP-2 IC50. Here is the method: as §1, with “The concentration inducing degradation of cIAP-1 and cIAP-2 by 50% (IC50) for various compounds was determined by monitoring the disappearance of Green Fluorescent Protein (GFP)-signal in A375 cells. Briefly,” for “Briefly,”, “filter. IC50 is defined as the concentration of drug at which 50% of GFP signal was inhibited.” for “filter.”

Data set [5] is classed as in vivo. An excerpt:
Body weight loss (BWL), mortality and additional toxicity data were generated substantially as follows. […] Body weights were taken on day 4 and are shown as percent change from day 1.

For data set [6], the system named is MDA-MB-231 human breast tumor cells. Briefly: MDA-MB-231 xenograft tumor growth delay. The class given is in vivo, female nude mice. Particulars: for Long-term survivors / Partial tumor regression / T−C value (tumor growth delay): q3dx5. Here is the method: MDA-MB-231 xenograft data were generated substantially as follows. MDA-MB-231 human breast tumor cells were injected into the mammary fat pad of female nude mice and dosing initiated twelve days later at an average tumor volume of approximately 148 mm^3. No tumor burden was associated with this model based on lack of weight loss or animal morbidity in control groups. Mice were injected subcutaneously into the mammary fat pad with 1×10^7 cells suspended in 200 μl of a 1:1 HBSS: Matrigel solution; injected cells were within nine passages of the original lot. Pre-study tumor volumes were recorded beginning approximately one week prior to the estimated start date. When tumors reached approximately 150 mm^3 animals are matched by tumor volume into treatment and control groups and dosing initiated (Day 0); mice are tagged and followed individually throughout the experiment. Animals were dosed by weight (0.01 mL per gram; 10 ml/Kg).
Beginning on Day 0, animals were observed daily and weighed twice weekly using a digital scale (Ohaus SP601); data including individual and mean gram weights (Mean We±SD), mean percent weight change versus Day 0 (% vD0) and mean percent weight change versus prior measurement (% vD−x) were recorded for each group and plotted at study completion.
Beginning on Day 0, tumor dimensions were measured twice weekly by digital caliper (Fowler Ultra-Cal IV) and data including individual and mean estimated tumor volumes (Mean TV±SEM) recorded for each group; tumor volume was calculated using the formula: TV=width^2×length×0.52. Individual mice reaching the designated study endpoint (an estimated tumor volume of approximately 1 cm^3) were assigned a time to endpoint (TTE) value corresponding to that day; the tumor growth delay (TGD) study was concluded once all mice reach the study endpoint or sixty days following study initiation. At study completion, TGD and % TGD are calculated using the median TTE (MTTE) value for each treatment (T) group versus control (C) by the formulas: TGD(days)=T−C and % TGD=T−C/C×100, wherein T−C is the difference between MTTE-Treatment Group and MTTE-Control. Tumored animals not reaching the designated volume endpoint by study completion are considered long-term survivors (LTS) and assigned a TTE value corresponding to the final study day; tumor-free animals are not included in TGD calculations. A Log-rank test is used to determine statistically significant differences in overall survival experience between each treated group compared to control. Individual mice reporting a tumor volume ≤50% of the Day 0 measurement for two consecutive measurements over a seven day period were considered partial responders (PR). If the PR persisted until study completion, percent tumor regression (% TR) was determined using the formula: % TR=1−Tf/Ti×100; a mean value was calculated if multiple PR mice occurred in one group. Individual mice lacking palpable tumors (<4×4 mm^2 for two consecutive measurements over a seven day period) were classified as complete responders (CR); a CR that persisted until study completion was considered a tumor-free survivor (TFS); TFS animals are excluded from TGD calculations and statistical analysis. Statistical differences in MTTE values between control and treatment groups are compared using a Log Rank test.

T3 sequence (Q13489 whole entry, species assumed): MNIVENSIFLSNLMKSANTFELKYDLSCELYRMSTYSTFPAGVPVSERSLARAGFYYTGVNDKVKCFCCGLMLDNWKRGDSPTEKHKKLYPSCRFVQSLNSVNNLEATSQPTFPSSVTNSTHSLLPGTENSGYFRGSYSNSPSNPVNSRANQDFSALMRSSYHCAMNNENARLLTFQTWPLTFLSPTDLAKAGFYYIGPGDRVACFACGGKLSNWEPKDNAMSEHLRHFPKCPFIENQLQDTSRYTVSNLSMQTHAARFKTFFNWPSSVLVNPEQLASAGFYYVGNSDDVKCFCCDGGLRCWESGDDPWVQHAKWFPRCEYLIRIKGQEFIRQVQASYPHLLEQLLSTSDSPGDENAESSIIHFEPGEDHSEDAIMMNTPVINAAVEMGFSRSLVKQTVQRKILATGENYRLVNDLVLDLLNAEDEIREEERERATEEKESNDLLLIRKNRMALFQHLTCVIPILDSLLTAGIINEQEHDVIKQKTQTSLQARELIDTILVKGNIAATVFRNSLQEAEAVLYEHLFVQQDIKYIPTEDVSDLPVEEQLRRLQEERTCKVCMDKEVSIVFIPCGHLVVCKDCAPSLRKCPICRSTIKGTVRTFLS

In data set [1], `CN[C@@H](C)C(=O)N[C@H](C(=O)N1C[C@@H](O)C[C@H]1Cc1c(-c2[nH]c3cc(F)ccc3c2C[C@@H]2C[C@H](O)CN2C(=O)[C@@H](NC(=O)[C@H](C)NC)C(C)C)[nH]c2cc(F)ccc12)C(C)C` [Compound 2] had a cytotoxic concentration (CC50) of 0.5 nM. In addition, in data set [2], the DC50 was determined as 4 nM and the “IC50 Ratio cIAP-2/cIAP-1” value was found to be 1.8. In data set [3], the IC50 was 13.4 nM. In addition, the DC50 in data set [4] was determined as 7 nM.

Turning to `CN[C@@H](C)C(=O)N[C@H](C(=O)N1C[C@@H](O)C[C@H]1Cc1c(-c2[nH]c3cc(F)ccc3c2C[C@@H]2C[C@H](O)CN2C(=O)[C@@H](NC(=O)[C@H](C)NC)[C@@H](C)O)[nH]c2cc(F)ccc12)[C@@H](C)O` [Compound 3], in data set [1], the half-maximal cytotoxic concentration (CC50) was found to be 13 nM. Also, in data set [2], the DC50 is 328 nM and the “IC50 Ratio cIAP-2/cIAP-1” value came out at 2.1. Also, the IC50 in data set [3] stood at 0.2 nM. Further, the DC50 in data set [4] was determined as 674 nM.

Take `CN[C@@H](C)C(=O)N[C@H](C(=O)N1C[C@@H](O)C[C@H]1Cc1c(-c2[nH]c3cc(F)ccc3c2C[C@@H]2C[C@H](O)CN2C(=O)[C@@H](NC(=O)[C@H](C)NC)[C@H](C)O)[nH]c2cc(F)ccc12)[C@H](C)O` [Compound 4]: in data set [5] (rat, 3 mg/Kg, QDx4 i.v. bolus), the Mortality result is reported as “caused the animals to die”. Also, in data set [5] (rat, in vivo, 1 mg/kg/day), the “Bone marrow hypocellularity of the erythroid series (anatomic pathology)” value is reported as “marked to severe”; the “Hypercellularity of the myeloid series (anatomic pathology)” value is “mild to moderate”; the “Hypertrophy and hyperplasia of megakaryocytes (anatomic pathology)” value is “mild to moderate”; the “Type 2 pneumocyte hypertrophy/hyperplasia in the lungs (anatomic pathology)” value is given as “mild to moderate”. Also, the Clinical signs entry in data set [5] (rat, in vivo, iv, 1 mg/kg/day) was “lethargy, increased/irregular respiration and increased heart rate”. In data set [1], this compound gave a CC50 of 2 nM. For the same compound, in data set [2], the DC50 amounted to 464 nM and the “IC50 Ratio cIAP-2/cIAP-1” value stood at 1.3. The compound further showed an IC50 in data set [3] of 0.35 nM. Also, the DC50 in data set [4] worked out at 604 nM.

As to `CC[C@H](NC(=O)[C@H](C)NC)C(=O)N1C[C@@H](O)C[C@H]1Cc1c(-c2[nH]c3cc(F)ccc3c2C[C@@H]2C[C@H](O)CN2C(=O)[C@H](CC)NC(=O)[C@H](C)NC)[nH]c2cc(F)ccc12` [Compound 15, N-{1S-[2R-(6,6′-Difluoro-3′-{4S-hydroxy-1-[2S-(2S-methylamino-propionylamino)-butyryl]-pyrrolidin-2R-ylmethyl}-1H,1′H-[2,2′]biindolyl-3-ylmethyl)-4S-hydroxy-pyrrolidine-1-carbonyl]-propyl}-2S-methylamino-propionamide], in data set [5] (Sprague-Dawley, in vivo, iv, 4 days), the “Tolerability in the rat as compared to Compounds 4 and 5, dose per dose” value was “approximately 5 fold”. Further, it took 0.14 nM to reach half-maximal cytotoxicity in data set [1] (CC50). Besides, the Long-term survivors in data set [6] (20 mg/Kg i.p.) is listed as 6/10; in data set [6] (40 mg/Kg i.p.) it was 9/10; in data set [6] (60 mg/Kg i.p.) it was 8/10. Also, the figures for the Partial tumor regression result in data set [6] (20 mg/Kg i.p.), in data set [6] (40 mg/Kg i.p.) and in data set [6] (60 mg/Kg i.p.) were “three”, “three” and “seven”, respectively. In addition, the “T−C value (tumor growth delay)” value in data set [6] (20 mg/Kg i.p.), in data set [6] (40 mg/Kg i.p.) and in data set [6] (60 mg/Kg i.p.) was 22 days throughout. The Minimal effective dose entry in data set [6] (MDA-MB-231 xenograft model, subsequent studies) is given as “less than 1 mg/Kg”. For the same compound, the DC50 in data set [4] stood at 174 nM.

Usually CC50 stands for the concentration at which the toxic effect on the cells reaches its halfway point. Higher therefore signals lower toxicity to the cells. Broadly, the IC50 is the midpoint of a concentration-inhibition curve.
